Test system: Nucleic Acid
Experiment: The compound was tested for its ability to inhibit the incorporation of tritiated thymidine into mammalian epithelial cells (DNA) at 30 uM dose
Assay type: cell-based
Conditions: Epithelial cell

Point of comparison: `Nc1ccn(C2O[C@H](COP(=O)(OCC(Cl)(Cl)Cl)OCC(Cl)(Cl)Cl)[C@@H](O)[C@@H]2O)c(=O)n1` (stereo partly drawn), inhibition 91%. Against it:
- CCOP(=O)(OC[C@H]1OC(n2ccc(N)nc2=O)[C@@H](O)[C@@H]1O)OCC(Cl)(Cl)Cl (single isomer, unassigned; form 2) — lower, 30%
- CCCCNP(=O)(OC[C@H]1OC(n2ccc(N)nc2=O)[C@@H](O)[C@@H]1O)OCC(Cl)(Cl)Cl (stereo partly drawn) — lower, 48%
- CCCOP(=O)(OC[C@H]1OC(n2ccc(N)nc2=O)[C@@H](O)[C@@H]1O)OCC(Cl)(Cl)Cl (stereo partly drawn) — lower, 40%
- CCCNP(=O)(OC[C@H]1OC(n2ccc(N)nc2=O)[C@@H](O)[C@@H]1O)OCC(Cl)(Cl)Cl (stereo partly drawn) — lower, 45%
- Nc1ccn([C@@H]2O[C@H](CO)[C@@H](O)[C@@H]2O)c(=O)n1 — lower, 83%
- COP(=O)(OC[C@H]1OC(n2ccc(N)nc2=O)[C@@H](O)[C@@H]1O)OCC(Cl)(Cl)Cl (stereo partly drawn) — lower, 22%
- CCOP(=O)(OC[C@H]1OC(n2ccc(N)nc2=O)[C@@H](O)[C@@H]1O)OCC(Cl)(Cl)Cl (single isomer, unassigned; form 1) — lower, 31%

Reference: ChEMBL document CHEMBL1125851, “Trans-esterification reactions yield novel masked phosphate derivatives of the anti-cancer agent araC” (Bioorg Med Chem Lett, 1991)
